Assay results reported in ChEMBL document CHEMBL3045530, “Synthesis, antimycobacterial, antiviral, antimicrobial activities, and QSAR studies of isonicotinic acid-1-(substituted phenyl)-ethylidene/cycloheptylidene hydrazides” (Med Chem Res, 2012).
Values after ≈ are worked out from the molar mass of the structure shown.

Test system: Vesicular stomatitis virus
Assay: Antiviral activity against Vesicular stomatitis virus infected human HeLa cells assessed as inhibition of virus-induced cytopathicity by microscopy
Type: functional, organism-based
Settings: not given
Molecule `C/C(=N\NC(=O)c1ccncc1)c1ccc(O)cc1O` has an EC50 greater than 0.8 µg/mL. Molecule `C/C(=N\NC(=O)c1ccncc1)c1ccc(Br)cc1` has an EC50 greater than 4 µg/mL.

Test system: Human herpesvirus 3 strain Oka vaccine
Assay: Antiviral activity against Human herpesvirus 3 strain Oka vaccine OKA 07-1 (Varicella zoster virus ) infected in human HEL cells assessed as inhibition of virus-induced cytopathicity
Type: functional, organism-based
Settings: Human alphaherpesvirus 3, HEL
In the case of `C/C(=N\NC(=O)c1ccncc1)c1ccc(O)cc1O`, the EC50 was 8 µg/mL (≈ 29.5 µM). In the case of `C/C(=N\NC(=O)c1ccncc1)c1ccc(Br)cc1`, the EC50 was greater than 20 µg/mL.

Test system: Human herpesvirus 5 strain AD169
Assay: Antiviral activity against Human herpesvirus 5 strain AD169 Davis infected human HEL cells assessed as inhibition of virus-induced cytopathicity by microscopy
Type: functional, organism-based
Settings: Human betaherpesvirus 5, Davis
`C/C(=N\NC(=O)c1ccncc1)c1ccc(O)cc1O` showed an EC50 greater than 4 µg/mL. In the case of `C/C(=N\NC(=O)c1ccncc1)c1ccc(Br)cc1`, the EC50 was greater than 20 µg/mL.

Test system: Respiratory syncytial virus
Assay: Antiviral activity against Respiratory syncytial virus infected human HeLa cells assessed as inhibition of virus-induced cytopathicity by microscopy
Type: functional, organism-based
Settings: not given
In the case of `C/C(=N\NC(=O)c1ccncc1)c1ccc(O)cc1O`, the EC50 was greater than 0.8 µg/mL. `C/C(=N\NC(=O)c1ccncc1)c1ccc(Br)cc1` gave an EC50 greater than 4 µg/mL.

Test system: Human alphaherpesvirus 1
Assay: Antiviral activity against Human herpesvirus 1 strain KOS infected human HEL cells assessed as inhibition of virus-induced cytopathicity by microscopy by microscopy
Type: functional, organism-based
Settings: Human alphaherpesvirus 1, KOS
Molecule `C/C(=N\NC(=O)c1ccncc1)c1ccc(O)cc1O` has an EC50 of 2.5 µg/mL (≈ 9.22 µM). `C/C(=N\NC(=O)c1ccncc1)c1ccc(Br)cc1` gave an EC50 greater than 20 µg/mL.

Test system: Human alphaherpesvirus 1
Assay: Antiviral activity against TK(-) aciclovir-resistant Human herpesvirus 1 strain KOS infected in human HEL cells assessed as inhibition of virus-induced cytopathicity
Type: functional, organism-based
Settings: Human alphaherpesvirus 1, KOS
Molecule `C/C(=N\NC(=O)c1ccncc1)c1ccc(O)cc1O` has an EC50 of 2 µg/mL (≈ 7.37 µM). Work on `C/C(=N\NC(=O)c1ccncc1)c1ccc(Br)cc1` yielded an EC50 greater than 20 µg/mL.

Test system: Vaccinia virus
Assay: Antiviral activity against Vaccinia virus infected human HEL cells assessed as inhibition of virus-induced cytopathicity by microscopy
Type: functional, organism-based
Settings: Orthopoxvirus vaccinia
Work on `C/C(=N\NC(=O)c1ccncc1)c1ccc(O)cc1O` yielded an EC50 of 2.5 µg/mL (≈ 9.22 µM). In the case of `C/C(=N\NC(=O)c1ccncc1)c1ccc(Br)cc1`, the EC50 was greater than 20 µg/mL.

Test system: Human immunodeficiency virus 2
Assay: Antiviral activity against Human immunodeficiency virus type 2 (ISOLATE ROD) infected MT4 cells assessed as inhibition of virus-induced cytopathic effect after 4 days by MTT assay
Type: functional, organism-based
Settings: Human immunodeficiency virus 2, ISOLATE ROD, MT4, 96 h
With `C/C(=N\NC(=O)c1ccncc1)c1ccc(O)cc1O` the EC50 was greater than 9.7 µg/mL. Work on `C/C(=N\NC(=O)c1ccncc1)c1ccc(Br)cc1` yielded an EC50 greater than 43 µg/mL.

Test system: Sindbis virus
Assay: Antiviral activity against Sindbis virus infected Vero cells assessed as inhibition of virus-induced cytopathicity
Type: functional, organism-based
Settings: not given
For `C/C(=N\NC(=O)c1ccncc1)c1ccc(O)cc1O`, the EC50 was greater than 4 µg/mL. `C/C(=N\NC(=O)c1ccncc1)c1ccc(Br)cc1` gave an EC50 greater than 20 µg/mL.

Test system: HEL
Assay: Cytostatic against Homo sapiens (human) HEL cells assessed as alteration in cell morphology by microscopy
Type: ADME, cell-based
Settings: not given
For `C/C(=N\NC(=O)c1ccncc1)c1ccc(O)cc1O`, the Activity was “Toxic”. For `C/C(=N\NC(=O)c1ccncc1)c1ccc(Br)cc1`, the Activity was “Toxic”.

Test system: not listed separately
Assay: Cytotoxicity against Chlorocebus aethiops (African green monkey) Vero cells assessed as alteration in cell morphology by microscopy
Type: cell-based
Settings: chlorocebus sabaeus, read-out: MTC
`C/C(=N\NC(=O)c1ccncc1)c1ccc(O)cc1O` gave an MCC of 20 µg/mL. `C/C(=N\NC(=O)c1ccncc1)c1ccc(Br)cc1` showed an MCC of no less than 20 µg/mL.

Test system: Coxsackievirus B4
Assay: Antiviral activity against Human coxsackievirus B4 infected Vero cells assessed as inhibition of virus-induced cytopathicity
Type: functional, organism-based
Settings: Enterovirus B
For `C/C(=N\NC(=O)c1ccncc1)c1ccc(O)cc1O`, the EC50 was greater than 4 µg/mL. With `C/C(=N\NC(=O)c1ccncc1)c1ccc(Br)cc1` the EC50 was greater than 20 µg/mL.

Test system: Mammalian orthoreovirus 1
Assay: Antiviral activity against Mammalian orthoreovirus 1 infected Vero cells assessed as inhibition of virus-induced cytopathicity by microscopy
Type: functional, organism-based
Settings: Mammalian orthoreovirus 1, Vero
For `C/C(=N\NC(=O)c1ccncc1)c1ccc(O)cc1O`, the EC50 was greater than 4 µg/mL. `C/C(=N\NC(=O)c1ccncc1)c1ccc(Br)cc1` gave an EC50 greater than 20 µg/mL.

Test system: Candida albicans
Assay: Antimicrobial activity against Candida albicans after 48 hr by tube dilution method
Type: functional
Settings: not given
For `C/C(=N\NC(=O)c1ccncc1)c1ccc(O)cc1O`, the “-logMIC” value was 2.64. With `C/C(=N\NC(=O)c1ccncc1)c1ccc(Br)cc1` the “-logMIC” value was 2.41.

Test system: Staphylococcus aureus
Assay: Antimicrobial activity against Staphylococcus aureus after 24 hr by tube dilution method
Type: functional
Settings: not given
For `C/C(=N\NC(=O)c1ccncc1)c1ccc(O)cc1O`, the “-logMIC” value was 2.04. With `C/C(=N\NC(=O)c1ccncc1)c1ccc(Br)cc1` the “-logMIC” value was 2.1.

Test system: not listed separately
Assay: Cytotoxicity against Homo sapiens (human) MT4 cells after 4 days by MTT assay
Type: cell-based
Settings: not given
With `C/C(=N\NC(=O)c1ccncc1)c1ccc(O)cc1O` the CC50 at 96 h was 9.7 µg/mL (≈ 35.8 µM). With `C/C(=N\NC(=O)c1ccncc1)c1ccc(Br)cc1` the CC50 at 96 h was 43 µg/mL (≈ 135 µM).

Test system: Aspergillus niger
Assay: Antimicrobial activity against Aspergillus niger after 7 days by tube dilution method
Type: functional
Settings: not given
For `C/C(=N\NC(=O)c1ccncc1)c1ccc(O)cc1O`, the “-logMIC” value was 2.34. With `C/C(=N\NC(=O)c1ccncc1)c1ccc(Br)cc1` the “-logMIC” value was 2.41.

Test system: Escherichia coli
Assay: Antimicrobial activity against Escherichia coli after 24 hr by tube dilution method
Type: functional
Settings: not given
For `C/C(=N\NC(=O)c1ccncc1)c1ccc(O)cc1O`, the “-logMIC” value was 2.04. In the case of `C/C(=N\NC(=O)c1ccncc1)c1ccc(Br)cc1`, the “-logMIC” value was 2.41.

Test system: Human alphaherpesvirus 2
Assay: Antiviral activity against Human herpesvirus 2 strain G infected human HEL cells assessed as inhibition of virus-induced cytopathicity by microscopy
Type: functional, organism-based
Settings: Human alphaherpesvirus 2, strain G
For `C/C(=N\NC(=O)c1ccncc1)c1ccc(O)cc1O`, the EC50 was 2 µg/mL (≈ 7.37 µM). With `C/C(=N\NC(=O)c1ccncc1)c1ccc(Br)cc1` the EC50 was greater than 20 µg/mL.

Test system: Human immunodeficiency virus 1
Assay: Antiviral activity against Human immunodeficiency virus 1 IIIB infected MT4 cells assessed as inhibition of virus-induced cytopathic effect after 4 days by MTT assay
Type: functional, organism-based
Settings: MT4, 96 h
`C/C(=N\NC(=O)c1ccncc1)c1ccc(O)cc1O` gave an EC50 greater than 9.7 µg/mL. Work on `C/C(=N\NC(=O)c1ccncc1)c1ccc(Br)cc1` yielded an EC50 greater than 43 µg/mL.

Test system: Coxsackievirus B4
Assay: Antiviral activity against Human coxsackievirus B4 infected human HeLa cells assessed as inhibition of virus-induced cytopathicity by microscopy
Type: functional, organism-based
Settings: Enterovirus B
`C/C(=N\NC(=O)c1ccncc1)c1ccc(O)cc1O` gave an EC50 greater than 0.8 µg/mL. Work on `C/C(=N\NC(=O)c1ccncc1)c1ccc(Br)cc1` yielded an EC50 greater than 4 µg/mL.

Test system: Human respirovirus 3
Assay: Antiviral activity against Human parainfluenza virus 3 infected Vero cells assessed as inhibition of virus-induced cytopathicity by microscopy
Type: functional, organism-based
Settings: Human respirovirus 3, Vero
With `C/C(=N\NC(=O)c1ccncc1)c1ccc(O)cc1O` the EC50 was greater than 4 µg/mL. Work on `C/C(=N\NC(=O)c1ccncc1)c1ccc(Br)cc1` yielded an EC50 greater than 20 µg/mL.

Test system: not listed separately
Assay: Cytotoxicity against Homo sapiens (human) HeLa cells assessed as alteration in cell morphology by microscopy
Type: cell-based
Settings: read-out: MTC
In the case of `C/C(=N\NC(=O)c1ccncc1)c1ccc(O)cc1O`, the MCC was 4 µg/mL. In the case of `C/C(=N\NC(=O)c1ccncc1)c1ccc(Br)cc1`, the MCC was 20 µg/mL.

Test system: Bacillus subtilis
Assay: Antimicrobial activity against Bacillus subtilis after 24 hr by tube dilution method
Type: functional
Settings: not given
For `C/C(=N\NC(=O)c1ccncc1)c1ccc(O)cc1O`, the “-logMIC” value was 2.04. In the case of `C/C(=N\NC(=O)c1ccncc1)c1ccc(Br)cc1`, the “-logMIC” value was 2.1.

Test system: not listed separately
Assay: Cytotoxicity against Homo sapiens (human) HEL cells assessed as alteration in cell morphology by microscopy
Type: cell-based
Settings: not given
Work on `C/C(=N\NC(=O)c1ccncc1)c1ccc(O)cc1O` yielded a CC50 of 2.1 µg/mL (≈ 7.74 µM). For `C/C(=N\NC(=O)c1ccncc1)c1ccc(Br)cc1`, the CC50 was 51 µg/mL (≈ 160 µM).

Same assay, conditions: read-out: MTC
In the case of `C/C(=N\NC(=O)c1ccncc1)c1ccc(O)cc1O`, the MCC was greater than 100 µg/mL. `C/C(=N\NC(=O)c1ccncc1)c1ccc(Br)cc1` gave an MCC of no less than 20 µg/mL.

Test system: Punta Toro virus
Assay: Antiviral activity against Punta Toro virus infected Vero cells assessed as inhibition of virus-induced cytopathicity
Type: functional, organism-based
Settings: not given
For `C/C(=N\NC(=O)c1ccncc1)c1ccc(O)cc1O`, the EC50 was greater than 4 µg/mL. `C/C(=N\NC(=O)c1ccncc1)c1ccc(Br)cc1` gave an EC50 greater than 20 µg/mL.
